{"source": "patent US4514410A", "about": "“Substituted 8-phenylisoxazolo[4,3-e][1,4]diazepin-5-ones” (Hoechst-Roussel Pharmaceuticals Inc., priority 1984, dated 1985)", "key": {"[1]": {"test": "Average conflict response ratio (anxiolytic)", "type": "in vivo", "conditions": "drug:control", "protocol": "The compounds of the invention are also useful as anxiolytic agents due to their ability to reduce anxiety in mammals. Anxiolytic activity is measured as the average conflict response ratio (drug:control) at 40 mg/kg of body weight."}, "[2]": {"tested_on": "extensor tonus in electroshocked mice", "test": "Inhibition of extensor tonus induced by electroshock in mice (anticonvulsant)", "type": "in vivo", "conditions": "Mus musculus, effective dose for 50% inhibition of extensor tonus", "source_text": "The anti-convulsant activity of some of the compounds of this invention expressed in terms of the effective dose for 50% inhibition of extensor tonus in mg/kg of body weight in electroshocked mice is given in Table I."}}}
{"smiles": "CC1=C2C(=C(c3ccccc3F)N=CC(=O)N2C)NO1", "note": "[3,4-Dimethyl-8-(2-fluorophenyl)isoxazolo[4,3-e][1,4]diazepin-5-one]", "values": [{"measurement": "Average Conflict Response Ratio", "setting": "[1]; at 40 mg/kg of body weight", "value": 11.2}, {"measurement": "ED50", "setting": "[2]", "value": 79.8, "unit": "mg/kg"}]}
{"smiles": "CC1=C2C(=C(c3ccccc3Cl)N=CC(=O)N2C)NO1", "note": "[3,4-Dimethyl-8-(2-chlorophenyl)isoxazolo[4,3-e][1,4]diazepin-5-one]", "values": [{"measurement": "Average Conflict Response Ratio", "setting": "[1]; at 40 mg/kg of body weight", "value": 18.2}, {"measurement": "ED50", "setting": "[2]", "value": 35.6, "unit": "mg/kg"}]}
{"smiles": "CC1=C2C(=C(c3ccccc3)N=CC(=O)N2C)NO1", "note": "[3,4-Dimethyl-8-phenylisoxazolo[4,3-e][1,4]diazepin-5-one]", "values": [{"measurement": "Average Conflict Response Ratio", "setting": "[1]; at 40 mg/kg of body weight", "value": 31.7}, {"measurement": "ED50", "setting": "[2]", "value": 25.1, "unit": "mg/kg"}]}
{"smiles": "CNC1=Nc2ccc(Cl)cc2C(c2ccccc2)=[N+]([O-])C1", "note": "[chlordiazepoxide, reference compound]", "values": [{"measurement": "Average Conflict Response Ratio", "setting": "[1]; @ 20 mg/kg (standard)", "value": 32.6}]}
{"smiles": "CC(=O)Nc1nnc(S(N)(=O)=O)s1", "note": "[acetazolamide, reference compound]", "values": [{"measurement": "ED50", "setting": "[2]", "value": 29.1, "unit": "mg/kg"}]}
